Measured values as given in patent publication US20260365991A1, “COMPOUNDS FOR STABILIZING PEPTIDES IN BIOLOGICAL SAMPLES” (Roche Diagnostics Operations, Inc., priority 2023, published 2026).

Assays:
gastrin-17 [1] = assay: Gastrin-17 stabilization by sulfone compounds in horse serum (Example 3); format: biochemical, human gastrin-17 (GAST_HUMAN) in horse serum; conditions: for ability to stabilize gastrin-17 in serum / stabilizing effect on gastrin-17 compared with DMSO: 5% [v/v], horse serum, room temperature, 5 h and 24 h
Protocol: Gastrin-17 (GAST_HUMAN(77-92)[Pyr-77]amid) was solved in horse serum with a concentration of 2.0 mg/ml and diluted to 0.22 mg/mL.
This solution was spiked respectively to reach a concentration of gastrin-17 of 0.1 mg/ml in (a) horse serum with added 5% [v/v]H2O; (b) horse serum with added 5% [v/v] DMSO (CAS: 67-68-5); (c) horse serum added 5% [v/v] Sulfolane (CAS: 126-33-0); d) horse serum with added 5% [v/v]trimethylene sulfone (CAS: 5687-92-3); e) horse serum with added 5% [v/v]1,1-dioxoisothiazolidine (CAS: 5908-62-3); f) horse serum with added 5% [v/v]1,4-butanesultone (CAS: 1633-83-6); g) horse serum with added 5% [v/v]tetrahydro-2H-thiopyran-4-ol 1,1-dioxide (CAS: 194152-05-1); h) horse serum with added 5% [v/v]2-methyltetrahydrothiophene 1,1-dioxide (CAS: 1003-46-9); i) horse serum with added 5% [v/v]ethylmethylsulfone (CAS: 594-43-4). The samples were then stored/incubated at room temperature. Samples were taken after 0 h, 5 h and 24 h. The further experiment was performed as described in Example 1.

[2] = cited from earlier work; for stability against oxidation compared with DMSO: Wasmus S and Vielstich W, Electrochimica Acta 1993
peptides A, B and C [3] = assay: Concentration dependence of stabilization of peptides A, B and C in horse serum (Example 2); format: biochemical; conditions: for concentration dependence of stabilization, peptides A, B and C / stabilization of peptides A, B and C: 1.25%, 2.5% and 5% (v/v); for stabilization of peptides A, B and C: room temperature, 0 h and 5 h
Protocol: (§1) Gastrin-17 (GAST_HUMAN(77-92)[Pyr-77]amid) and MS Qual/Quant QC-Mix (Mat. No.: MSQC2, Sigma Aldrich; comprises peptides A, B and C) was solved in horse serum with a concentration of 2.0 mg/ml and diluted to 0.22 mg/mL.
(§2) This solution was spiked respectively to reach a concentration of 0.1 mg/ml in (a) horse serum with added 5% [v/v] DMSO (CAS: 67-68-5); (b) horse serum with added 5% [v/v] Sulfolane (CAS: 126-33-0); c) horse serum with added 2.5% [v/v] DMSO (CAS: 67-68-5); d) horse serum with added 2.5% [v/v] Sulfolane (CAS: 126-33-0); e) horse serum with added 1.25% [v/v] DMSO (CAS: 67-68-5); f) horse serum with added 1.25% [v/v] Sulfolane (CAS: 126-33-0); The samples were stored at room temperature. A sample was taken 0 h and 5 h after spiking. The further experiment was conducted as described in Example 1.

gastrin-17 [4] = assay: Concentration dependence of gastrin-17 stabilization in horse serum (Example 2); format: biochemical, human gastrin-17 (GAST_HUMAN) in horse serum; conditions: for concentration dependence of stabilization, gastrin-17 / stabilization of gastrin-17: 1.25%, 2.5% and 5% (v/v); for stabilization of gastrin-17: room temperature, 0 h and 5 h
Protocol: as §1, §2

gastrin-17 [5] = assay: Gastrin-17 stability in horse serum with 5% additive (Example 1, HPLC-MS); format: biochemical, human gastrin-17 (GAST_HUMAN) in horse serum; conditions: for protection ability on gastrin-17: room temperature, 0 h, 5 h, 23 h
Protocol: (§3) Gastrin-17 (GAST_HUMAN(77-92)[Pyr-77]amid) and MS Qual/Quant QC-Mix (Mat. No.: MSQC2, Sigma Aldrich, a peptide mix comprising peptides A, B and C as referred to herein) was solved in horse serum with a concentration of 2.0 mg/ml and diluted to 0.22 mg/mL.
(§4) This solution was spiked respectively to reach a final peptide concentration of 0.1 mg/ml in (a) horse serum with added 5% [v/v]H2O; (b) horse serum with added 5% [v/v] DMSO (CAS: 67-68-5); (c) horse serum with added 5% [v/v] Sulfolane (CAS: 126-33-0). The samples were stored at room temperature. Samples were taken at three times after spiking (0 h, 5 h and 23 h) and centrifuged with a Microcon-10 filter (Ultracel PL-10, Regenerated Cellulose 10,000 NMWL) for 10 min at 4 °C and 10,000 rpm. Afterwards the filtrate was separated by a liquid chromatography (HPLC) coupled with MS detector (QTOF Premier, Waters). The separation was done by a reverse phase liquid chromatography (Vydac 218TP C18, 5 μm, 2.1×150 mm, column temperature 50 °C) with a linear gradient to 100% of eluent B over 17 minutes. The eluent A was water with 0.025% [v/v]trifluoroacetic acid and eluent B was acetonitrile with 0.023% [v/v]trifluoroacetic acid. The quantification was done by using […]=1049.9 Da for Gastrin-17, [M+2H]^2+=671.8 Da for peptid A, [M+2H]^2+=751.4 Da for peptid B and [M+2H]^2+=802.9 Da for peptid C. Peptid A, B and C are exemplary peptides contained in the peptid-Mix MS Qual/Quant QC-Mix (Mat. No.: MSQC2, Sigma Aldrich). The peptide mix MS Qual/Quant QC-Mix (Mat. No.: MSQC2, Sigma Aldrich) contained peptides of a length of 4 to 26 amino acids.

peptides A, B and C [6] = assay: Stability of peptides A, B and C in horse serum with 5% additive (Example 1, HPLC-MS); format: biochemical; conditions: for protection ability on different peptides (A, B, C): room temperature, 0 h, 5 h, 23 h
Protocol: as §3, §4

[7] = 5% [v/v], especially after longer incubation (23 h)

Question: With `O=S1(=O)CCCN1` [1,1-dioxoisothiazolidine] as the molecule, how does the “ability to stabilize gastrin-17 in serum” value (gastrin-17 [1]) read?
Answer: Its value is “have the ability to stabilize peptides”.

Question: And the “stability against oxidation compared with DMSO” value [2]?
Answer: The value was “more stable against oxidation than DMSO”.

Question: What does the source list for `O=S1(=O)CCCCO1` [1,4-butanesultone]?
Answer: ability to stabilize gastrin-17 in serum (gastrin-17 [1]): have the ability to stabilize peptides; stabilizing effect on gastrin-17 compared with DMSO (gastrin-17 [1]): superior to the DMSO stabilizing effect; stability against oxidation compared with DMSO [2]: more stable against oxidation than DMSO

Question: What does the source list for `C[S+](C)[O-]` [DMSO, dimethylsulfoxid, reference compound]?
Answer: concentration dependence of stabilization, peptides A, B and C (peptides A, B and C [3]; 5 h): stabilization increased with the concentration; stabilization of peptides A, B and C (peptides A, B and C [3]): stabilized each of the peptides; concentration dependence of stabilization, gastrin-17 (gastrin-17 [4]; 5 h): stabilization increased with the concentration; stabilization of gastrin-17 (gastrin-17 [4]): stabilized each of the peptides; protection ability on gastrin-17 (gastrin-17 [5]; 5% [v/v]): both exhibit protection ability; oxidation instability ([2]; background statement): rather instable; protection ability on different peptides (A, B, C) (peptides A, B and C [6]; 5% [v/v]): both exhibit protection ability

Question: Which results are given for `O=S1(=O)CCCC1` [Sulfolane]?
Answer: ability to stabilize gastrin-17 in serum (gastrin-17 [1]): have the ability to stabilize peptides; stabilizing effect on gastrin-17 compared with DMSO (gastrin-17 [1]): superior to the DMSO stabilizing effect; protection of gastrin peptide over a longer period compared with DMSO (gastrin-17 [1]; ca. 24 h, similar concentrations like DMSO, serum derived degradation): can protect the Gastrin Peptide better over a longer period; concentration dependence of stabilization, peptides A, B and C (peptides A, B and C [3]; 5 h): stabilization increased with the concentration; stabilization of peptides A, B and C (peptides A, B and C [3]): stabilized each of the peptides; overall stabilization compared with DMSO, peptides A, B and C (peptides A, B and C [3]; 1.25-5% (v/v), 5 h): overall better peptide stabilization ability; concentration dependence of stabilization, gastrin-17 (gastrin-17 [4]; 5 h): stabilization increased with the concentration; stabilization of gastrin-17 (gastrin-17 [4]): stabilized each of the peptides; overall stabilization compared with DMSO, gastrin-17 (gastrin-17 [4]; 1.25-5% (v/v), 5 h): overall better peptide stabilization ability; stability improvement (MassSpec peak area) (gastrin-17 [4]; FIG. 3, 5% vs 2.5% and 1.25% sulfolane or DMSO, legend says only "Peptide"): improves stability best; protection of gastrin-17 compared with DMSO (gastrin-17 [5]; [7]): exceeds the DMSO protection outcome; protection ability on gastrin-17 (gastrin-17 [5]; 5% [v/v]): both exhibit protection ability; signal stability over time (MassSpec peak area), gastrin-17 (gastrin-17 [5]; FIG. 1, 5% [v/v] vs no additive and 5% DMSO): better signal stability over time; stability against oxidation compared with DMSO [2]: more stable against oxidation than DMSO; stability of Sulfolane compared with DMSO based upon oxidation ([2]; no experiment described at the place): more stable than DMSO based upon oxidation; protection of peptides A, B, C compared with DMSO (peptides A, B and C [6]; [7]): exceeds the DMSO protection outcome; protection ability on different peptides (A, B, C) (peptides A, B and C [6]; 5% [v/v]): both exhibit protection ability; signal stability over time (MassSpec peak area), peptides A, B and C (peptides A, B and C [6]; FIG. 2, 5% [v/v] vs no additive and 5% DMSO): better signal stability over time

Question: Which “ability to stabilize gastrin-17 in serum” value (gastrin-17 [1]) does the source give for `CCS(C)(=O)=O` [ethylmethylsulfone] here?
Answer: Its value is “have the ability to stabilize peptides”.

Question: And the “stabilizing effect on gastrin-17 compared with DMSO” value (gastrin-17 [1])?
Answer: The value was “superior to the DMSO stabilizing effect”.

Question: What about the “stability against oxidation compared with DMSO” value [2] of the same molecule?
Answer: Its value is “more stable against oxidation than DMSO”.

Question: For `CC1CCCS1(=O)=O` (stereo not drawn) [methyltetrahydrothiophene 1,1-dioxide, 2-methyltetrahydrothiophene 1,1-dioxide], which “ability to stabilize gastrin-17 in serum” value (gastrin-17 [1]) is on record?
Answer: Its value is “have the ability to stabilize peptides”.

Question: And the “stabilizing effect on gastrin-17 compared with DMSO” value (gastrin-17 [1])?
Answer: The value was “superior to the DMSO stabilizing effect”.

Question: And the “stability against oxidation compared with DMSO” value [2]?
Answer: The value was “more stable against oxidation than DMSO”.

Question: With `O=S1(=O)CCC(O)CC1` [tetrahydro-2H-thiopyran-4-ol 1,1-dioxide] as the molecule, how does the “ability to stabilize gastrin-17 in serum” value (gastrin-17 [1]) read?
Answer: Its value is “have the ability to stabilize peptides”.

Question: And the “stabilizing effect on gastrin-17 compared with DMSO” value (gastrin-17 [1])?
Answer: Its value is “superior to the DMSO stabilizing effect”.

Question: What about the “stability against oxidation compared with DMSO” value [2] of the same molecule?
Answer: Its value is “more stable against oxidation than DMSO”.

Question: Which “ability to stabilize gastrin-17 in serum” value (gastrin-17 [1]) does the source give for `O=S1(=O)CCC1` [trimethylene sulfone] here?
Answer: Its value is “have the ability to stabilize peptides”.

Question: And the “stabilizing effect on gastrin-17 compared with DMSO” value (gastrin-17 [1])?
Answer: The value was “superior to the DMSO stabilizing effect”.

Question: What about the “stability against oxidation compared with DMSO” value [2] of the same molecule?
Answer: The value was “more stable against oxidation than DMSO”.
